# Data taken from patent US9518254B2, “Compositions and methods for identifying enzyme and transport protein inhibitors” (San Diego State University Research Foundation, priority 2009, dated 2016).
# Experiments:
# HIV-1 protease (PR) [1] = format: cell-based; details: SupT1 PR/Gal4 clone, 1 μg/mL Dox; for inhibitor concentration resulting in eGFP activation: analyzed 50 hrs later, range tested 1 nM to 20 μM
# [2] = system: tet-responsive element (TRE) / rtTA; assay: Doxycycline activation titration of clonal SupT1 cells (Tet-On induction of eGFP reporter); format: cell-based
# Text: To obtain an inducible cell line, we utilized the tetracycline inducible system (Tet-On). For this purpose we constructed two lentiviral vectors; one harboring a 7× Tetracycline Response Element (TRE) upstream the gene of interest and another expressing the reverse tet-transactivator (rtTA) coupled to an IRES-mCherry cassette to corroborate rtTA expression. In this system, the TRE element is bound and activated by rtTA only in the presence of an inducer (Tet or Dox). Gal4, PR/Gal4 and PRm/Gal4 were all transferred into the TRE inducible vector (see Figures).
# In order to optimize the assay for maximal Gal4, PR/Gal4 or PRm/Gal4 induction, we analyzed the effect of increasing levels of Dox. Cells with 0, 50, 100, 250, 500, 750, 1,000, and 2,000 ng/mL Dox were either treated with 10 uM DMSO or 10 uM Indinavir and analyzed 32 hours later. TRE-Gal4 cells reached saturation with Doxycycline at about 1,000 ng/mL whether Indinavir was present or not. […] Again, as with transiently transfected 293 cells, TRE-PR/Gal4 cells had little to non-detectable eGFP expression at any given Dox concentration in the absence of 10 μM Indinavir.
# (§1) FIG. 22 graphically illustrates data determining the optimal conditions for activating the assay to screen for PR inhibition. FIG. 22A graphically illustrates a Doxycycline titration. Clonal SupT1 cells harboring an inducible Gal4, PR/Gal4 or PRm/Gal4 were pre-incubated in a 96 well plate with either DMSO or 10 μM Indinavir and then either left untreated, or activated with […] of Dox. Cells were analyzed by flow cytometry and gated to determine the number of cells positive for eGFP expression. FIG. 22B graphically illustrates a time course of eGFP Induction in response to Doxycyline activation in the presence of DMSO or a PI. SupT1 clones harboring Gal4, PR/Gal4, or PRm/Gal4 were pre-incubated in a 96 well plate with either DMSO or 10 μM Indinavir and then activated with 1 μg/mL Dox. Cells were analyzed at either 4, 8, 12, 16, 20, 25, 50 or 75 hours by flow cytometry and gated for eGFP positive expression.
# HIV-1 protease (PR) [3] = format: cell-based
# Text: Finally, cells were infected with virus encoding the reporter, rtTA and inducible wild-type PR/Gal4 (pH-TRE-PR/Gal4) to test the ability for this system in T-cells to indicate the levels of PR activity.
# Finally, individual cells from these sorted populations were sorted into a 96 well plate based on the lack of eGFP expression. Clonal cell lines obtained from this experiment were later activated under the same conditions described above, and screened for the individual clones which responded as desired (minimal background and maximal eGFP activation). […] These clones were then expanded and further tested in the following experiments.
# To determine the optimal time point for the analysis of eGFP expression in the presence of inhibitor, cells were activated with Dox and analyzed by flow cytometry 4, 8, 12, 16, 20, 25, 50, or 75 hours later. Six-well plates containing 250K cells per well in 3 mL media were treated either with DMSO alone as control, or 1 μg/mL Dox and 10 μM Indinavir.
# A 2 ml reaction containing 4 μl of 5 μg/mL Polybrene (Hexadimethrene Bromide, Sigma), 500K SupT1 cells in RPMI (10% FCS, L-glutamine, Pen-strep) and 250 μl frozen viral stocks was mixed, added to wells in 6-well plates, and spun in a hanging bucket rotors Becton Dickinson centrifuge at 1500 RPM, for 120′ at 32° C. Cells were re-suspended and placed in a 37° C. incubator for the analysis of expression at least 72 hours post-infection.
# Flow Cytometry was performed on a BD FACSAria with 488 nm and 633 nm lasers. Data was collected on FACSDiva 6.1.1 software and then exported to FlowJo. eGFP expression was detected in the FITC channel and mCherry expression was detected on the PE-Texas-Red channel. Cells were first gated for size and granularity (FSC-A vs SSC-A) followed by doublet gating (FSC-A vs FSC-W and SSC-A vs. SSC-W). Sorted populations were gated on PE-TexasRed vs FITC plot. 250K cells were collected for each sample into 0.5 mL fetal calf serum (FCS) and 1 mL RPMI. Cells were then spun down at 1500 RPM and resuspended in fresh media in 6-well plates. Cells were allowed to grow for at least seven days to allow for expansion and loss of previously activated eGFP expression.
# as §1
# HIV-1 protease (PR) [4] = format: cell-based; details: HEK293T cells pre-treated with 10 uM inhibitor, co-transfected with reporter and pcDNA-PR/Gal4
# Description: It was of critical importance to verify the ability for the PR/Gal4 fusion to activate the reporter eGFP by the addition of PR inhibitors. For that purpose, 293T cells were pre-treated with 10 μM Indinavir and then co-transfected with reporter and pcDNA-PR/Gal4 vectors.
# 293T cells were transfected as follows. 15 μl of 2 mg/mL Polyethylenimine linear 25 kD (Polysciences, Inc.) were added to 125 μl of DMEM in a 1.8 ml Eppendorf tube. 3 μg of each DNA was added drop-wise to each tube. Tubes were mixed and incubated for 20 min at RT. This mixture was then added drop-wise to 293T cells in a 10 cm plate at ˜60-75% confluence. Cells were then analyzed by fluorescence microscopy and/or flow cytometry 24 hrs post transfection.
# Top Panel: Fluorescence microscopy of eGFP expression in HEK293T cells 24 hours post transfection with the reporter vector (pFR), or co-transfection with the reporter vector plus either the Gal4, PR/Gal4, or PRm/Gal4 vectors. Bottom panel: HEK293T cells were analyzed by flow cytometry at 24 hours post transfection with the same conditions top panel. Gates were drawn to determine the ability to identify cells with an active PI. […] Quantification of eGFP expression in HEK293T transfected with various assay elements. The numbers of cells under various conditions were quantified for eGFP levels indicative of PR inhibition. Results shown are an average of 3 experiments.
# SupT1 cells [5] = details: human, 50 h
# Description: (§2) The range chosen extended from 1 nM to 20 μM.
# (§3) The selected SupT1 clone expressing rtTA and mCherry, the 5×UAS-eGFP reporter and an inducible PR/Gal4 were activated with 1 μg/mL and incubated with various concentrations (1, 10, 50, 100, 500, 1000, 5000, 10000 or 20000 ng/mL) of an FDA approved PI: Either Amprenavir, Atazanavir, Darunavir, Indinavir, Lopinavir, Nelfinavir, Ritonavir, Saquinavir, or Tipranavir. Cells were then analyzed 50 hrs later for eGFP expression as determined by flow cytometry on a BD FACSAria.
# SupT1 cells [6] = assay: Cell death in reporter SupT1 T-cell clones incubated with PR inhibitors; details: SupT1 PR/Gal4 clone, 50 hrs
# Description: as §2, §3
# HIV-1 protease (PR) [7] = assay: Expression of GFP-PR fusion in cells transfected with pcDNA-GFP-PR (fluorescence microscopy); format: cell-based; details: inhibitor added at 0 and 24 h post transfection
# Text: In one embodiment, to achieve low levels of protease, e.g., PR, expression in mammalian cells, a tetracycline (Tet) inducible system is used. FIG. 3 illustrates by fluorescence microscopy use of an exemplary vector of the invention, a Tet-inducible HIV-based self-inactivating vector, that allows regulated expression of the gene of interest. In this case, we have used the enhanced green fluorescent protein (eGFP) as the ectopic gene. This vector allows different levels of protein expression. Tight repression and expression of PR at low levels may be crucial to avoid the possible side effects of PR. […] FIG. 3 illustrates by fluorescence microscopy HeLa cells infected with a Tet inducible HIV-based self-inactivating vector. The cells were incubated with 1 μg/ml Tet and eGFP expression was observed by fluorescence microscopy 24 and 72 h post addition of Tet. […]
# In summary, FIG. 4 illustrates fluorescent microscopy analysis of cells transfected with pcDNA control (Invitrogen) and pcDNA-GFP-PR. GFP expression was analyzed 24 h post transfection. […]
# In summary, FIG. 5 graphically illustrates flow cytometry analysis of cells expressing PR-GFP fusion. Cells transfected with pcDNA (control) or pcDNA-GFP-PR fusions were collected 48 hr post-transfection and analyzed for GFP expression. […]
smiles,measurement,setting,value
COC(=O)N[C@H](C(=O)N[C@@H](Cc1ccccc1)[C@@H](O)CN(Cc1ccc(-c2ccccn2)cc1)NC(=O)[C@@H](NC(=O)OC)C(C)(C)C)C(C)(C)C [Atazanavir],inhibitor concentration resulting in eGFP activation,HIV-1 protease (PR) [1],1 nM
CC(C)CN(C[C@@H](O)[C@H](Cc1ccccc1)NC(=O)O[C@H]1CO[C@H]2OCC[C@H]21)S(=O)(=O)c1ccc(N)cc1 [Darunavir],inhibitor concentration resulting in eGFP activation,HIV-1 protease (PR) [1],1 nM
C[C@H]1c2cccc(O)c2C(=O)C2=C(O)[C@]3(O)C(=O)C(C(N)=O)=C(O)[C@@H](N(C)C)[C@@H]3[C@@H](O)[C@@H]21 [Doxycycline],Dox concentration at saturation of eGFP induction,"[2]; TRE-Gal4 cells, with or without 10 uM Indinavir, 32 hours","about 1,000 ng/mL"
same,Dox concentration at maximal eGFP induction,"[2]; TRE-PR/Gal4 cells pre-incubated with 10 μM Indinavir, 32 hours",around 500 ng/mL
same,Dox concentration at saturation of eGFP induction,"[2]; TRE-PRm/Gal4 cells, uninhibited and Indinavir-treated, 32 hours",around 250 ng/mL
same,Dox concentration at which activation is saturated,[2]; clonal SupT1 cells pre-incubated with DMSO or 10 μM Indinavir,around 1 μg/mL
CC(C)(C)NC(=O)[C@@H]1CN(Cc2cccnc2)CCN1C[C@@H](O)C[C@@H](Cc1ccccc1)C(=O)N[C@H]1c2ccccc2C[C@H]1O [Indinavir],activation of PR/Gal4 clones (GFP positive),"HIV-1 protease (PR) [3]; SupT1 PR/Gal4 clones, Dox 1 μg/mL, PI 10 μM",~90%
same,time of initial induction of eGFP expression,"HIV-1 protease (PR) [3]; SupT1 clone, 1 μg/mL Dox and 10 μM inhibitor",8 h
same,eGFP expression (positive cells) by 50 hours,"HIV-1 protease (PR) [3]; SupT1 clone, 1 μg/mL Dox and 10 μM inhibitor, 50 hours",~100%
same,time at which activation of clones reaches max,"HIV-1 protease (PR) [3]; clonal SupT1 cells in 96-well plates, pre-incubation with 10 μM PI, Dox activation",around 48 hrs
same,eGFP induction in presence of inhibitor,"HIV-1 protease (PR) [3]; non-clonal SupT1 cells with reporter, rtTA and pH-TRE-PR/Gal4, 1 μg/mL Dox and 10 μM inhibitor",large induction of eGFP expression
same,eGFP induction by PR/Gal4 fusion in presence of inhibitor,HIV-1 protease (PR) [4],drastic induction
same,inhibitor concentration inducing nearly full activation of eGFP reporter,HIV-1 protease (PR) [1]; 50 hrs,5 µM
same,level of reporter activation at low concentrations,"HIV-1 protease (PR) [1]; 50 hrs, compared with the other FDA-approved PIs",lowest levels of reporter activation at low concentrations
Cc1cccc(C)c1OCC(=O)N[C@@H](Cc1ccccc1)[C@@H](O)C[C@H](Cc1ccccc1)NC(=O)[C@H](C(C)C)N1CCCNC1=O [Lopinavir],"concentration resulting in significant cell death, with decline in number of eGFP positive cells",SupT1 cells [5],around 1 uM
Cc1c(O)cccc1C(=O)N[C@@H](CSc1ccccc1)[C@H](O)CN1C[C@H]2CCCC[C@H]2C[C@H]1C(=O)NC(C)(C)C [Nelfinavir],"concentration resulting in significant cell death, with decline in number of eGFP positive cells",SupT1 cells [5],around 1 uM
CC(C)(C)NC(=O)[C@@H]1C[C@@H]2CCCC[C@@H]2CN1C[C@@H](O)[C@H](Cc1ccccc1)NC(=O)[C@H](CC(N)=O)NC(=O)c1ccc2ccccc2n1 [Saquinavir],concentration with significant decline in the number of eGFP positive cells (cell death),SupT1 cells [6],20 µM
same,expression of N-terminal GFP-PR fusion in presence of inhibitor,HIV-1 protease (PR) [7],highly expressed
CCC[C@@]1(CCc2ccccc2)CC(O)=C([C@H](CC)c2cccc(NS(=O)(=O)c3ccc(C(F)(F)F)cn3)c2)C(=O)O1 [Tipranavir],inhibitor concentration inducing nearly full activation of eGFP reporter,HIV-1 protease (PR) [1]; 50 hrs,5 µM
